Laboratory results from patent US20240409585A1, “MACROCYCLIC IMMUNOMODULATORS” (priority 2021, published 2024).
Bridge positions count the residues as written; N and C are the ends. Square brackets hold non-standard residues; d marks the D form. Peptide text beside a SMILES is read from it. * marks the point of attachment. ξ: configuration not given here. Phe(3-CF3) = N[C@@H](Cc1cccc(C(F)(F)F)c1)C(=O)O; Ala(morpholin-4-yl) = N[C@@H](CN1CCOCC1)C(=O)O; Phe(3-COOH) = N[C@@H](Cc1cccc(C(=O)O)c1)C(=O)O; Phe(4-COOH) = N[C@@H](Cc1ccc(C(=O)O)cc1)C(=O)O; Bip = N[C@@H](Cc1ccc(-c2ccccc2)cc1)C(=O)O; Phe(3-Me) = Cc1cccc(C[C@H](N)C(=O)O)c1; Val(3-OH) = CC(C)(O)[C@H](N)C(=O)O; 4Pal = N[C@@H](Cc1ccncc1)C(=O)O; Cha = N[C@@H](CC1CCCCC1)C(=O)O; Cit = NC(=O)NCCC[C@H](N)C(=O)O; Ile(3ξ) = CCC(C)[C@H](N)C(=O)O; Pip = O=C(O)[C@@H]1CCCCN1; dDab = NCC[C@@H](N)C(=O)O; Carboxymethyl = O=C(O)C*; NMeA = CN[C@@H](C)C(=O)O; Orn = NCCC[C@H](N)C(=O)O; Dab = NCC[C@H](N)C(=O)O; Dap = NC[C@H](N)C(=O)O; ξC = NC(CS)C(=O)O; Acm = CC(=O)NC*

target: T1, PE-labeled human PD-L1-Ig binding to Jurkat cell line over-expressing human PD-1 (Jurkat-PD-1) (Homo sapiens, UniProt Q15116); assay: Jurkat-PD-1 Cell Binding High-Content Screening Assay (CBA): Method 1; settings: Jurkat-hPD-1 cells, PE-labeled PD-L1-Ig 20 nM final; read-out: Jurkat HPDL1 PD1 IC50 (uM) (Method 1)
T1 construct: expressed in transfected cells; host or cells: Jurkat
T1 sequence (Q15116 25-288): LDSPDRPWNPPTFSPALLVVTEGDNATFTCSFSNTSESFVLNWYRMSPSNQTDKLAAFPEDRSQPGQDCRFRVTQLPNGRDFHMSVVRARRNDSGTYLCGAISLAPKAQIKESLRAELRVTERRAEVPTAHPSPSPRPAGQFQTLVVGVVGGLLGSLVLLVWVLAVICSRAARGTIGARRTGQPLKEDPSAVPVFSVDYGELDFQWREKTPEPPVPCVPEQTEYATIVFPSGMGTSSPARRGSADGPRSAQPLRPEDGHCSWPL

Row | Compound | IC50
1 | CC(C)[C@@H]1NC(=O)[C@H](CC2CCCCC2)NC(=O)[C@H](CCN)NC(=O)CNC(=O)[C@H](C)N(C)C(=O)[C@H](Cc2ccc(C(=O)O)cc2)NC(=O)[C@H](Cc2ccc(-c3ccccc3)cc2)NC(=O)[C@H](Cc2ccc(C(=O)O)cc2)NC(=O)[C@H](Cc2cccc(C(F)(F)F)c2)NC(=O)[C@H](CC(=O)O)NC(=O)[C@H](Cc2ccc(C(=O)O)cc2)NC(=O)[C@H](CN2CCOCC2)NC(=O)CSC[C@@H](C(=O)N[C@@H](CCN)C(N)=O)NC(=O)[C@H](CCC(=O)O)NC1=O [Example 2286] ({CH2CO}-[Ala(morpholin-4-yl)][Phe(4-COOH)]D[Phe(3-CF3)][Phe(4-COOH)][Bip][Phe(4-COOH)][NMeA]G[Dab][Cha]VEC[Dab]-NH2; thioether N-14) | 0.08 µM
2 | CC(=O)NCSC[C@@H]1NC(=O)[C@H](Cc2cccc(C)c2)NC(=O)[C@H](CC(=O)O)NC(=O)[C@H](Cc2ccncc2)NC(=O)[C@H](Cc2ccc(OCC(=O)O)cc2)NC(=O)CSCC(C(=O)NCC(N)=O)NC(=O)[C@H](CSCNC(C)=O)NC(=O)[C@H](C(C)C)NC(=O)[C@H](CC(C)C)NC(=O)[C@H](CC(N)=O)NC(=O)[C@@H](CC(C)C)NC(=O)[C@H](C)N(C)C(=O)[C@H](C(C)C)NC(=O)[C@H](Cc2ccc(-c3ccccc3)cc2)NC1=O (stereo partly drawn) [Compound 1885] ({CH2CO}-Y(Carboxymethyl)[4Pal]D[Phe(3-Me)]C(Acm)[Bip]V[NMeA][dL]NLVC(Acm)[ξC]G-NH2; thioether N-14) | 0.11 µM
3 | CC(C)C[C@@H]1NC(=O)[C@H](CCCCN)NC(=O)[C@@H](CC(C)C)NC(=O)[C@H](C)N(C)C(=O)[C@H](CCCNC(=N)N)NC(=O)[C@H](Cc2ccc(-c3ccccc3)cc2)NC(=O)[C@H](C(C)C)NC(=O)[C@H](Cc2c[nH]c3ccccc23)NC(=O)[C@H](CC(=O)O)NC(=O)[C@H](Cc2ccc(O)cc2)NC(=O)[C@H](CC(N)=O)NC(=O)CSC[C@@H](C(=O)N[C@@H](CO)C(N)=O)NC(=O)[C@H]([C@@H](C)O)NC(=O)[C@H](C(C)C)NC1=O [Compound 1174] ({CH2CO}-NYDWV[Bip]R[NMeA][dL]KLVTCS-NH2; thioether N-14) | 0.06 µM
4 | Cc1cccc(C[C@@H]2NC(=O)[C@H](CC(=O)O)NC(=O)[C@H](Cc3ccc(O)cc3)NC(=O)[C@H](CC(N)=O)NC(=O)CSC[C@@H](C(N)=O)NC(=O)[C@H]([C@@H](C)O)NC(=O)[C@H](C(C)C)NC(=O)[C@H](CC(C)C)NC(=O)[C@H](CCN)NC(=O)[C@@H](CC(C)C)NC(=O)[C@H](C)N(C)C(=O)[C@H](C(C)C)NC(=O)[C@H](Cc3ccc(-c4ccccc4)cc3)NC(=O)[C@H](C(C)C)NC2=O)c1 [Compound 1637] ({CH2CO}-NYD[Phe(3-Me)]V[Bip]V[NMeA][dL][Dab]LVTC-NH2; thioether N-14) | 0.15 µM
5 | Cc1cccc(C[C@@H]2NC(=O)[C@H](CC(=O)O)NC(=O)[C@H](Cc3ccc(OCC(=O)O)cc3)NC(=O)[C@H](CN)NC(=O)CSC[C@@H](C(=O)N[C@@H](CCN)C(N)=O)NC(=O)[C@@H](CCN)NC(=O)[C@H](C(C)C)NC(=O)[C@H](CC3CCCCC3)NC(=O)[C@H](CCN)NC(=O)[C@@H](CC(C)C)NC(=O)[C@H](C)N(C)C(=O)[C@H](Cc3ccc(O)cc3)NC(=O)[C@H](Cc3ccc(-c4ccccc4)cc3)NC(=O)[C@H](Cc3ccc(O)cc3)NC2=O)c1 [Compound 1873] ({CH2CO}-[Dap]Y(Carboxymethyl)D[Phe(3-Me)]Y[Bip]Y[NMeA][dL][Dab][Cha]V[dDab]C[Dab]-NH2; thioether N-14) | 0.03 µM
6 | CC(C)C[C@@H]1NC(=O)[C@H](Cc2c[nH]c3ccccc23)NC(=O)[C@H](CC(=O)O)NC(=O)[C@H](Cc2ccc(C(=O)O)cc2)NC(=O)[C@H](Cc2cccc(C(=O)O)c2)NC(=O)CSC[C@@H](C(=O)NCC(N)=O)NC(=O)[C@H](CO)NC(=O)[C@H](C(C)C)NC(=O)[C@H](CC2CCCCC2)NC(=O)[C@H](CCN)NC(=O)[C@@H](CC(C)C)NC(=O)[C@H](C)N(C)C(=O)[C@H](C(C)C)NC(=O)[C@H](Cc2ccc(-c3ccccc3)cc2)NC1=O [Compound 1879] ({CH2CO}-[Phe(3-COOH)][Phe(4-COOH)]DWL[Bip]V[NMeA][dL][Dab][Cha]VSCG-NH2; thioether N-14) | 0.01 µM
7 | CC(C)C[C@H]1NC(=O)[C@H](C)N(C)C(=O)[C@H](CCCNC(N)=O)NC(=O)[C@H](Cc2ccc(-c3ccccc3)cc2)NC(=O)[C@H](C(C)C)NC(=O)[C@H](Cc2c[nH]c3ccccc23)NC(=O)[C@H](CC(=O)O)NC(=O)[C@H](Cc2ccc(O)cc2)NC(=O)[C@H](CC(N)=O)NC(=O)CSC[C@@H](C(=O)N[C@@H](C)C(N)=O)NC(=O)[C@H]([C@@H](C)O)NC(=O)[C@H](C(C)C)NC(=O)[C@H](CC2CCCCC2)NC(=O)[C@H](CCCNC(=N)N)NC1=O [Compound 1304] ({CH2CO}-NYDWV[Bip][Cit][NMeA][dL]R[Cha]VTCA-NH2; thioether N-14) | 0.02 µM
8 | CSCC[C@H]1NC(=O)[C@H](C)N(C)C(=O)[C@H](CCCNC(=N)N)NC(=O)[C@H](Cc2ccc(-c3ccccc3)cc2)NC(=O)[C@H](C(C)C)NC(=O)[C@H](Cc2c[nH]c3ccccc23)NC(=O)[C@H](CC(=O)O)NC(=O)[C@H](Cc2ccc(O)cc2)NC(=O)[C@H](Cc2ccccc2)NC(=O)CSC[C@@H](C(=O)N[C@@H](C)C(N)=O)NC(=O)[C@H]([C@@H](C)O)NC(=O)[C@H](C(C)C)NC(=O)[C@H](CC(C)C)NC(=O)[C@H](CCCNC(=N)N)NC1=O [Compound 1062] ({CH2CO}-FYDWV[Bip]R[NMeA][dM]RLVTCA-NH2; thioether N-14) | 0.15 µM
9 | Cc1cccc(C[C@@H]2NC(=O)[C@H](CC(=O)O)NC(=O)[C@H](Cc3ccc(OCC(=O)O)cc3)NC(=O)[C@H](CN)NC(=O)CSC[C@@H](C(N)=O)NC(=O)[C@H](CO)NC(=O)[C@H](C(C)C)NC(=O)[C@H](CC3CCCCC3)NC(=O)[C@H](CCN)NC(=O)[C@@H](CC(C)C)NC(=O)[C@@H]3CCCCN3C(=O)[C@H](Cc3ccc(OCC(=O)O)cc3)NC(=O)[C@H](Cc3ccc(-c4ccccc4)cc3)NC(=O)[C@H](Cc3ccc(OCC(=O)O)cc3)NC2=O)c1 [Compound 1892] ({CH2CO}-[Dap]Y(Carboxymethyl)D[Phe(3-Me)]Y(Carboxymethyl)[Bip]Y(Carboxymethyl)[Pip][dL][Dab][Cha]VSC-NH2; thioether N-14) | 0.06 µM
10 | CC(C)C[C@H]1NC(=O)[C@H](C)N(C)C(=O)[C@H](CCCNC(=N)N)NC(=O)[C@H](Cc2ccc(-c3ccccc3)cc2)NC(=O)[C@H](C(C)C)NC(=O)[C@H](Cc2c[nH]c3ccccc23)NC(=O)[C@H](CC(=O)O)NC(=O)[C@H](Cc2ccc(O)cc2)NC(=O)[C@H](Cc2ccccc2)NC(=O)CSC[C@@H](C(=O)N[C@@H](C)C(N)=O)NC(=O)[C@H]([C@@H](C)O)NC(=O)[C@H](C(C)C)NC(=O)[C@H](CC2CCCCC2)NC(=O)[C@H](CCCNC(=N)N)NC1=O [Compound 1115] ({CH2CO}-FYDWV[Bip]R[NMeA][dL]R[Cha]VTCA-NH2; thioether N-14) | 0.05 µM
11 | CC(C)C[C@H]1NC(=O)[C@H](C)N(C)C(=O)[C@H](C(C)(C)O)NC(=O)[C@H](Cc2ccc(-c3ccccc3)cc2)NC(=O)[C@H](C(C)(C)O)NC(=O)[C@H](Cc2c[nH]c3ccccc23)NC(=O)[C@H](CC(=O)O)NC(=O)[C@H](Cc2ccc(C(=O)O)cc2)NC(=O)[C@H](Cc2ccc(OCC(=O)O)cc2)NC(=O)CSC[C@@H](C(=O)N[C@@H](CCN)C(N)=O)NC(=O)[C@H](CCC(=O)O)NC(=O)[C@H](C(C)(C)O)NC(=O)[C@H](CC2CCCCC2)NC(=O)[C@H](CCN)NC1=O [Compound 1713] ({CH2CO}-Y(Carboxymethyl)[Phe(4-COOH)]DW[Val(3-OH)][Bip][Val(3-OH)][NMeA][dL][Dab][Cha][Val(3-OH)]EC[Dab]-NH2; thioether N-14) | 0.13 µM
12 | CC(C)C[C@H]1NC(=O)[C@H](C)N(C)C(=O)[C@H](CCCN)NC(=O)[C@H](Cc2ccc(-c3ccccc3)cc2)NC(=O)[C@H](C(C)C)NC(=O)[C@H](Cc2c[nH]c3ccccc23)NC(=O)[C@H](CC(=O)O)NC(=O)[C@H](Cc2ccc(O)cc2)NC(=O)[C@H](CC(N)=O)NC(=O)CSC[C@@H](C(=O)N[C@@H](C)C(N)=O)NC(=O)[C@H]([C@@H](C)O)NC(=O)[C@H](C(C)C)NC(=O)[C@H](CC2CCCCC2)NC(=O)[C@H](CCCNC(=N)N)NC1=O [Compound 1276] ({CH2CO}-NYDWV[Bip][Orn][NMeA][dL]R[Cha]VTCA-NH2; thioether N-14) | 0.03 µM
13 | CC(C)C[C@@H]1NC(=O)[C@H](CCN)NC(=O)[C@@H](CC(C)C)NC(=O)[C@H](C)N(C)C(=O)[C@H](CCCNC(N)=O)NC(=O)[C@H](Cc2ccc(-c3ccccc3)cc2)NC(=O)[C@H](C(C)C)NC(=O)[C@H](Cc2c[nH]c3ccccc23)NC(=O)[C@H](CC(=O)O)NC(=O)[C@H](Cc2ccc(O)cc2)NC(=O)[C@H](Cc2cnc[nH]2)NC(=O)CSC[C@@H](C(=O)N[C@@H](C)C(N)=O)NC(=O)[C@H]([C@@H](C)O)NC(=O)[C@H](C(C)C)NC1=O [Compound 1356] ({CH2CO}-HYDWV[Bip][Cit][NMeA][dL][Dab]LVTCA-NH2; thioether N-14) | 0.02 µM
14 | CCC(C)[C@@H]1NC(=O)[C@H](Cc2ccc(-c3ccccc3)cc2)NC(=O)[C@H](C(C)C)NC(=O)[C@H](Cc2cccc(C)c2)NC(=O)[C@H](CC(=O)O)NC(=O)[C@H](Cc2cccc(C)c2)NC(=O)[C@H](Cc2ccncc2)NC(=O)CSC[C@@H](C(=O)N[C@@H](CO)C(=O)O)NC(=O)[C@H](CO)NC(=O)[C@H](C(C)C)NC(=O)[C@H](CC2CCCCC2)NC(=O)[C@H](CCN)NC(=O)[C@@H](CC(C)C)NC(=O)[C@H](C)N(C)C1=O (stereo partly drawn) [Compound 2235] ({CH2CO}-[4Pal][Phe(3-Me)]D[Phe(3-Me)]V[Bip][Ile(3ξ)][NMeA][dL][Dab][Cha]VSCS-OH; thioether N-14) | 0.3 µM
15 | CC(=O)NCCCC[C@@H]1NC(=O)[C@H](C(C)C)NC(=O)[C@H](CC2CCCCC2)NC(=O)[C@H](CCN)NC(=O)[C@@H](CC(C)C)NC(=O)[C@H](C)N(C)C(=O)[C@H](CCC(N)=O)NC(=O)[C@H](Cc2ccc(-c3ccccc3)cc2)NC(=O)[C@H](C(C)C)NC(=O)[C@H](Cc2cccc(C)c2)NC(=O)[C@H](CC(=O)O)NC(=O)[C@H](Cc2ccc(OCC(=O)O)cc2)NC(=O)[C@H](Cc2ccc(OCC(=O)O)cc2)NC(=O)CSC[C@@H](C(=O)N[C@@H](CCN)C(N)=O)NC1=O [Compound 2129] ({CH2CO}-Y(Carboxymethyl)Y(Carboxymethyl)D[Phe(3-Me)]V[Bip]Q[NMeA][dL][Dab][Cha]VK(Ac)C[Dab]-NH2; thioether N-14) | 0.01 µM
